{"source": "patent US20090148535A1", "about": "“METHOD FOR TREATING CANCER USING INTERFERENCE RNA” (MINERVA BIOTECHNOLOGIES CORPORATION, priority 2007, published 2009)", "format_in_all_cases": "cell-based", "key": {"[1]": {"system": "BTRes1 cells", "assay": "Cell death of BTRes1 cells with chemotherapeutic agents with or without Anti-MUC1* Fab (Trypan Blue exclusion)", "conditions": "for resistance of BTRes1 and restored killing effect with Anti-MUC1* Fab: 10 ug/ml Anti-MUC1* Fab", "experimental": "(§1) BT474, BTRes1 and BTRes2 cells were plated at 10,000 cells/well in 96 well plates, 4 wells/condition. The following day, Cyclophosphamide, Taxol, or Doxorubicin were added in varying concentrations, alone, or in the presence of 10 ug/ml Anti-MUC1* Fab or 10 ug/ml Control Fab. Cells were left untreated, or treated with either Fab alone as controls. Two days later, cells were resuspended in 50 ul trypsin, and counted in the presence of trypan blue. Percent cell death was calculated as percent trypan blue uptake."}, "[2]": {"system": "BT474 cells", "assay": "Cell death of BT474 cells with chemotherapeutic agents (Trypan Blue exclusion)", "conditions": "10 nM Taxol, two days post-treatment", "experimental": "as §1"}, "[3]": {"system": "BTRes1 cells", "assay": "Growth of siRNA-transfected BTRes1 cells in the presence of HERCEPTIN", "conditions": "HERCEPTIN 0-1 ug/ml, cell counts three days post-treatment", "experimental": "Percent Normalized Growth was then calculated: Percent Normalized Growth=[(Day 3 cell counts with Antibody Added )−(Zero-day cell counts)]/[(Day 3 Cell counts without antibody added)−(Zero-day cell counts)]×100%\n(§2) BT474 cells were transfected in triplicate with control siRNA (Santa Cruz Biotechnologies; sc-37007), and BTRes1 cells were transfected in triplicate with control or MUC1-specific siRNA (Santa Cruz Biotechnologies sc-35985). One microliter of 10 uM siRNA was added to 100 ul of OptiMEM medium (Invitrogen 22600134). Six microliters of HiPerfect reagent (Qiagen 301704) were then added to each tube. After vortexing, tubes were incubated at room temperature for 20 minutes. Meanwhile, cells were trypsinized, pelleted and resuspended in fresh RPMI without HERCEPTIN. 5×10^5 cells in 2.3 ml RPMI were combined with the OptiMEM with siRNA/HiPerfect complexes and added to a well of a 6 well plate. Two days later, cells were re-transfected by the same method, and plated in 96 well plates, at 10,000 cells/well, five wells/condition. Leftover cells were plated in six well plates. […] The following day, cells plated in 6 well plates were harvested and pelleted for Western analysis to evaluate siRNA efficacy. Three days later, cells were counted, and Percent Normalized Growth was calculated."}, "[4]": {"system": "MUC1*", "assay": "Western blot of MUC1* after siRNA transfection", "conditions": "Western Blot after transient siRNA transfection", "experimental": "as §2"}}}
{"molecule": "CC(=O)O[C@H]1C(=O)[C@@]2(C)[C@H]([C@H](OC(=O)c3ccccc3)[C@]3(O)C[C@H](OC(=O)[C@H](O)[C@@H](NC(=O)c4ccccc4)c4ccccc4)C(C)=C1C3(C)C)[C@]1(OC(C)=O)CO[C@@H]1C[C@@H]2O", "note": "[Taxol]", "values": [{"measurement": "cell killing", "setting": "[1]; BTRes1, 10 nM Taxol alone, two days, compared to untreated cells", "value": "essentially unaffected"}, {"measurement": "killing effect with Anti-MUC1* Fab", "setting": "[1]; BTRes1, 10 nM Taxol and 10 ug/ml Anti-MUC1* Fab", "value": "restored"}, {"measurement": "cell killing", "setting": "[2]", "value": "effectively killed"}]}
{"molecule": "COc1cccc2c1C(=O)c1c(O)c3c(c(O)c1C2=O)C[C@@](O)(C(=O)CO)C[C@@H]3O[C@H]1C[C@H](N)[C@H](O)[C@H](C)O1", "note": "[Doxorubicin]", "values": [{"measurement": "resistance of BTRes1 and restored killing effect with Anti-MUC1* Fab", "setting": "[1]; 1 uM drug", "value": "also observed"}]}
{"molecule": "MUC1 siRNA: MUC1-specific siRNA (Santa Cruz Biotechnologies sc-35985) (GCAGCCTCTCGATATAACCATCTCGAGGGGTTATATCGAGAGGCTGC; expressed or natural sequence)", "values": [{"measurement": "growth in the presence of HERCEPTIN of cells transfected with the siRNA", "setting": "[3]", "value": "reduced"}, {"measurement": "MUC1* level", "setting": "[4]", "value": "Down regulation"}]}
{"molecule": "O=P1(N(CCCl)CCCl)NCCCO1", "note": "(stereo not shown) [Cyclophospharnide, Cyclophosphamide]", "values": [{"measurement": "resistance of BTRes1 and restored killing effect with Anti-MUC1* Fab", "setting": "[1]; 10 uM drug", "value": "also observed"}]}
